Key:
[1] = system: Single Comb White Leghorn hens; experiment: Anti-PLA2 antibody titer in egg yolk of immunized hens by ELISA; assay type: in vivo
Excerpt: (§1) In all Examples, Single Comb White Leghorn hens (SCWL) used were transported as pullets (18- to 22-weeks of age) from S&R Farms (Whitewater, Wis.) to University of Wisconsin—Madison Poultry Research Laboratory. Hens were individually housed in cages with raised bottom floors for at least four weeks before being assigned to an Example, and were 26- to 60-weeks of age at the beginning of experiments. Hens were fed, ad libitum, a standard corn-soybean meal based laying hen diet formulated to meet nutritional requirements. Housing was maintained under an automated lighting schedule with 16:8-h light-dark cycle. All procedures involving animals were approved by Animal Care Committee at University of Wisconsin, Madison.
The antigen selected for comparing the antibody response of hens was a 13 kDa soluble protein antigen, phospholipase A2 (PLA2) purified from porcine pancreas (Novozyme, Bagsvaerd, Denmark; greater than 90% purity based on SDS-PAGE). PLA2 was used because of its commercial relevance, and its previous use as a model antigen for studying hen antibody response (Trott, et al., 2008, “Additions of killed whole cell bacteria preparations to Freund complete adjuvant alter laying hen antibody response to soluble protein antigen,” Poult. Sci., 87(5):912-917). Hens were immunized according to methods described by Trott, et al. (2008). The primary immunization for each hen was a water-in-oil emulsion (50:50) that consisted of 3 mg PLA2 dissolved in 0.5 mL phosphate buffer saline (PBS), and emulsified with 0.5 mL of Freund Complete Adjuvant (FCA; DIFCO, Sparks, Md.). Seven days after the primary immunization, each hen received a booster injection containing 3 mg PLA2 dissolved in 0.5 mL PBS and emulsified with Freund Incomplete Adjuvant (FIA; DIFCO). All injections (primary and booster) were administered i.m. into each breast and thigh of hen (1 ml/hen at 0.25 mL/injection site). In all experiments, immunization of hens (primary and booster) occurred at approximately 10 A.M. to eliminate the potential confounding effect of endogenous CORT levels fluctuating due to circadian rhythms.
Based on previous experimentation (Trott et al., 2008; Schade et al., 2001, “Chicken egg yolk antibodies: Production and application,” Springer, Heidelberg, Germany) week three after primary immunization represented peak antibody titer in egg yolk; therefore, eggs were collected once per week beginning on week three and continuing until week eight or ten for repeated testing of anti-PLA2 antibody content using an ELISA (Trott, et al., 2008).
Anti-PLA2 antibody content of egg yolk and serum samples were measured by an ELISA (Trott, et al., 2008). A 96-well Nunc-Immuno Plate with MaxiSorp surface (Thermo Fischer Scientific, Waltham, Mass.) was coated overnight (100 μl per well) with PLA2 (Sigma Aldrich, St. Louis, Mo.) at a concentration of 10 μg/ml in 50 mM sodium bicarbonate. After washing, the plate was blocked (175 μl per well) for at least 1 hour with PBS containing 1% albumin from bovine serum albumin (BSA; Sigma Aldrich). Egg antibody was water-extracted from liquid egg yolk samples. Liquid egg yolk samples […] were pipetted with a positive displacement pipette (Rainin, Oakland, Calif.) and extracted overnight with 1.8 ml acidified PBS (pH 5). The extraction mixture was centrifuged at 1,500×g for 10 minutes, and the supernate was further diluted to 1:16,000 with PBS containing 1% BSA (pH 7). Serum samples were diluted 1:16,000 in PBS containing 1% BSA. In addition to the weekly egg yolk or serum samples, an ‘in-lab standard’ was applied to each ELISA plate. The standard applied to each plate consisted of a 2-fold serial dilution from 1:2,000 to 1:64,000 of water-extracted egg yolks from hens immunized against PLA2 in a previous trial. After coating, blocking, and washing the plate, duplicate samples and ‘in-lab standard’ (100 μl/well) were incubated for 1 hour on the plate followed by washing (6×). […]

[2] = system: Single Comb White Leghorn hens; experiment: Anti-PLA2 antibody titer in serum of immunized hens by ELISA; assay type: in vivo; conditions: weeks 2 to 3 after primary immunization
Excerpt: as §1
The antigen selected for comparing the antibody response of hens was a 13 kDa soluble protein antigen, phospholipase A2 (PLA2) purified from porcine pancreas (Novozyme, Bagsvaerd, Denmark; greater than 90% purity based on SDS-PAGE). PLA2 was used because of its commercial relevance, and its previous use as a model antigen for studying hen antibody response (Trott, et al., 2008, “Additions of killed whole cell bacteria preparations to Freund complete adjuvant alter laying hen antibody response to soluble protein antigen,” Poult. Sci., 87(5):912-917). […]
Anti-PLA2 antibody content of egg yolk and serum samples were measured by an ELISA (Trott, et al., 2008). […]

[3] = system: Single Comb White Leghorn hens; experiment: Peripheral blood mononuclear cell (PBMC) counts; assay type: in vivo
Description: Peripheral Blood Mononuclear Cell Counts. […] Whole blood (2-3 ml) was collected from wing vein into heparin-containing tubes (Becton Dickinson, Sparks, Md.). In 15-ml conical tubes, blood (2 ml) was layered on an equal volume (2 ml) of 1077 Histopaque (Sigma-Aldrich), and centrifuged at 400×g for 30 minutes at room temperature. Mononuclear cells were collected from the gradient interface, and re-suspended in PBS to the original blood volume (2 ml) or the sample. PBMCs were further diluted (1:16) in PBS, mixed with an equal volume of 0.4% trypan blue solution (Sigma-Aldrich), and counted, microscopically, with the aid of a hemacytometer.

[4] = system: Single Comb White Leghorn hens; experiment: Body weight change (% initial BW); assay type: in vivo
Description: (§2) Measurement of body weight and egg production. […] Initial body weight of adult laying hens, 26- to 60-weeks of age, was reported when measured at the beginning of experiments. Data were expressed as a percentage of initial body weight (% initial BW) to determine effects of CORT on change in body weight. Eggs produced were recorded daily for each hen. Laying frequency (or egg production) of each hen during each 7 day period measured, was obtained by dividing the total number of eggs laid by 7.

[5] = system: Single Comb White Leghorn hens; experiment: Egg production (laying frequency); assay type: in vivo
Description: as §2

chicken = conditions: feeding CORT 20-80 mg/kg diet; cited from earlier work
broilers = conditions: dietary CORT 30 mg/kg diet for 1 week; cited from earlier work
laying hens = conditions: cited from earlier work
[6] = after 1 day of CORT at 20 mg/kg diet in drinking water; cited from earlier work
mice = conditions: exogenous corticosterone; cited from earlier work
[7] = Example 3: CORT 5 days, week 1 after diet administration
[8] = Example 4: CORT 6 days, weeks 4 to 10 after primary immunization

decrease in egg production between week 1 before and week 1 after diet administration ([5]; Example 3: CORT 5 days, p=0.004): 21% | overall difference in egg production vs control-fed hens ([5]; Example 3: CORT 5 days, p=0.57): no overall difference | egg production, overall ([5]; Example 3: CORT 5 days, throughout the Example): 73% | egg production [5, 7]: 50% | egg production less than control-fed hens ([5]; Example 3: CORT 5 days, week 1 after diet administration, p=0.005): 34% | egg production ([5]; Example 3: CORT 5 days, week 2): 62% | egg production less than control-fed hens ([5]; Example 3: CORT 5 days, week 2, p=0.014): 29% | overall egg production less than control-fed hens ([5]; Example 4: CORT 6 days): 35% | egg production suppressed vs control-fed hens ([5]; Example 4: CORT 6 days, week 1 after diet administration): 50% | egg production suppressed vs control-fed hens ([5]; Example 4: CORT 6 days, week 2 after diet administration): 100% | egg production suppressed vs control-fed hens ([5]; Example 4: CORT 6 days, week 3 after diet administration): 80% | overall egg production ([5]; Example 4: CORT 6 days, weeks 0 to 10): 54% | egg production [5, 8]: 69% | egg production lower than control-fed hens [5, 8]: 17% | overall egg production ([5]; Example 5: CORT 9 days): 39% | overall egg production less than control-fed hens ([5]; Example 5: CORT 9 days): 31% | egg production suppressed vs control-fed hens ([5]; Example 5: CORT 9 days, week 4 after diet administration): 80% | egg production ([5]; Example 5: CORT 9 days, week 5 after diet administration): 45% | egg production lower than control-fed hens ([5]; Example 5: CORT 9 days, week 5 after diet administration, p=0.007): 50% | egg production suppressed vs control-fed hens ([5]; Example 5: CORT 9 days, weeks 2 and 3 after diet administration): 60% | egg production ([5]; Example 5: CORT 9 days, weeks 6 to 11 after primary immunization): 53% | egg production lower than control-fed hens ([5]; Example 5: CORT 9 days, weeks 6 to 11 after primary immunization, p=0.001): 14%
SMILES: C[C@]12C[C@H](O)[C@H]3[C@@H](CCC4=CC(=O)CC[C@@]43C)[C@@H]1CC[C@@H]2C(=O)CO [CORT, corticosterone]
difference in antibody titer of egg yolks vs control-fed hens ([1]; Example 2: CORT 30 mg/kg diet for 2 days beginning on day 1 before primary immunization, weeks 3 to 6, p=0.24): no difference | antibody titer of egg yolks (Log2 titer) ([1]; Example 2: CORT 30 mg/kg diet for 2 days beginning on day 1 before primary immunization, weeks 3 to 6 after primary immunization): 15.52 Log2 titer | antibody titer of egg yolks (Log2 titer) ([1]; Example 3: CORT 30 mg/kg diet for 5 days beginning on day 7 before primary immunization, weeks 3 to 5 after primary immunization): 17.02 Log2 titer | difference in antibody titer of egg yolks vs control-fed hens ([1]; Example 3: CORT for 5 days beginning on day 7 before primary immunization, weeks 3 to 5, p=0.96): no difference | egg yolk antibody titer (Log2 titer) ([1]; Example 4: CORT 30 mg/kg diet for 6 days beginning on day 1 before primary immunization, weeks 3 to 5): 17.32 Log2 titer | egg yolk antibody titer (Log2 titer) ([1]; Example 4: CORT 6 days, entire study period weeks 3 to 9): 17.37 Log2 titer | fold higher egg yolk antibody titer vs control-fed hens ([1]; Example 4: CORT 6 days, weeks 3 to 5, p=0.006): 3.1 fold | fold increase in antibody titer of egg yolks vs control hens ([1]; Example 4: CORT 6 days, weeks 3 to 9, p=0.032): 1.8 fold | fold higher antibody titer of egg yolks vs control-fed hens ([1]; Example 5: CORT 9 days, weeks 3 to 10, p=0.00001): 3.0 fold | antibody titer of egg yolks (Log2 titer) ([1]; Example 5: dietary CORT for 9 days beginning on day 1 before primary immunization, weeks 3 to 10 after primary immunization): 16.50 Log2 titer | serum antibody titer (Log2 titer) ([2]; Example 4: CORT 30 mg/kg diet for 6 days beginning on day 1 before primary immunization): 17.65 Log2 titer | fold higher serum antibody titer vs control hens ([2]; Example 4: CORT 6 days, p=0.008): 4.9 fold | overall effect of CORT on PBMC counts ([3]; Example 3: CORT 5 days beginning day 7 before immunization, p=0.82): no effect | PBMC count [3, 7]: 17,800 cells/μl blood | PBMC count as % of control-fed hens ([3]; Example 3: CORT 5 days, week 1 after diet administration, p=0.025): 49% | PBMC count ([3]; Example 3: CORT 5 days, week 2 after diet administration): 35,400 cells/μl blood | PBMC count ([3]; Example 4: CORT 30 mg/kg diet 6 days, week 1 after diet administration): 9,200 cells/μl blood | PBMC count as % of control-fed hens ([3]; Example 4: CORT 6 days, week 1 after diet administration, p<0.0001): 43% | PBMC count ([3]; Example 4: CORT 6 days, week 2): 12,900 cells/μl blood | PBMC count as % of control-fed hens ([3]; Example 4: CORT 6 days, week 2, p=0.001): 59% | PBMC count ([3]; Example 4: CORT 6 days, week 3, returned to control levels, p=0.57): 19,700 cells/μl blood | effect of CORT on body weight (% initial BW) vs control-fed hens ([4]; Example 3: CORT 5 days, p=0.27): no effect | body weight higher than initial body weight [4, 7]: 11.4% | body weight higher than initial body weight ([4]; Example 3: CORT 5 days, week 2): 10.5% | body weight vs initial body weight ([4]; Example 3: CORT 5 days, week 5 after diet administration, p=0.57): not different from initial body weight | body weight higher than initial body weight ([4]; Example 4: CORT 6 days, weeks 1 to 3 after diet administration): 13.3% | number of circulating lymphocytes in chicken blood (chicken): markedly decreased | effect on body weight gain in broilers (broilers): negatively affect | egg production (laying hens; after 1 week of dietary CORT 20-40 mg/kg diet): completely suppressed | effect on egg production in laying hens (laying hens; dietary CORT 30 mg/kg diet for 1 week): negatively affect | additional time out of production after removal of CORT (laying hens; dietary CORT 20-40 mg/kg diet for 1 week): 9 to 12 days | plasma CORT concentrations [6]: significant increase | mouse T-dependent antibody response to sheep erythrocytes (mice): increased
